Assay results from PubChem BioAssay AID1963854 (Molecular Pharmacology Branch, DTP, NCI, 2024).

Test system: 186277-243-T-J2-PDC complex spheroid viability
Test: Anticancer human tumor 186277-243-T-J2-PDC patient-derived colon adenocarcinoma cell line growth inhibition [POLQ]
Conditions: for IC50: curve of first compound; for viability, T/C: stronger effect = lower value
Experimental: Multicellular complex tumor spheroid response to Polymerase (POL) inhibitors (novobiocin, ART-558, RP6685) in combination with a variety of drugs and investigational agents in selected tumor cell lines
The POL inhibitors (novobiocin, ART-558, and RP6685) were evaluated both individually and in combination with standard of care and investigational anticancer small molecules within a complex spheroid model of solid tumors. . Complex spheroids include a stromal component modeled by human endothelial cells (HUVEC) and fibroblasts modeled by human mesenchymal stem cells (MSCs). The concentration ranges selected for each drug and investigational agent were based upon clinically achievable concentrations if the clinical Cmax of the agent was known.
Compounds. The drugs and investigational agents: novobiocin (NSC847541), ART-558 (NSC835418), RP-6685 (NSC848927), peposertib (NSC802822), ceralasertib (NSC780249), elimusertib (NSC800525), camonsertib (NSC841442), AZD-1390 (NSC803789), olaparib (NSC753686), talazoparib (NSC767125), rucaparib (NSC756644), sotorasib (NSC818433), MRTX-1133 (NSC836407), SN-38 (NSC673596), topotecan (NSC609699), epotoside (NSC141540), doxorubicin (NSC123127), gemcitabine (NSC613327), 5-fluorouracil (NSC19893), paclitaxel (NSC125973), vemurafenib (NSC761431), MSA-2 (NSC828583), SN-011 (NSC837082), adavosertib (NSC754352), prexasertib (NSC758257), carboplatin (NSC241240) and oxaliplatin (NSC266046), were obtained from the National Cancer Institute (NCI) Developmental Therapeutics Program Chemical Repository (21). The FDA-approved anticancer drug set is available from the Developmental Therapeutics Program at https://dtp.cancer.gov/organization/dscb/obtaining/. […] The stock solutions were prepared in dimethyl sulfoxide (DMSO, Sigma-Aldrich, St. Louis, MO, cat. D2650), except for the platinum compounds which were prepared in saline (Quality Biological, Gaithersburg, MD, cat. 114-055-101), at 800-fold the tested concentration and stored at -70 degrees C prior to their use. All drugs and investigational agents were tested over a range starting from a high concentration at or near the clinical Cmax and decreasing in half-log increments. If the clinical Cmax for an agent had not been determined, the highest concentration tested was 10 microM, except for SN-38, which was tested at a high concentration of 1 microM.
Cell Culture. All cells were maintained in an incubator at 37 degrees C and 5% CO2 with 95% humidity. The PDC lines were cultured according to standard operating procedures established by the NCI PDMR (https://pdmr.cancer.gov). Table 3 of the manuscript, lists the cell lines along with the number of the three cell types plated to form the mct-spheroids and media for tumor cell growth. After thawing, all PDC lines, except 997537-175-T-J1-PDC and 415267-285-R-J2-PDC, were cultured in Matrigel-coated flasks prepared with a working solution of 1X Ham's F-12 nutrient mix, without supplementation (Thermo Fisher Scientific, cat. 11765054), 100 U/mL penicillin-streptomycin (Thermo Fisher Scientific, cat. 15140122), and 2.5% Matrigel (Corning Inc., Corning, NY, cat. 354248) for the first three passages. The two PDC lines 997537-175-T-J1-PDC and 415267-285-R-J2-PDC were cultured on uncoated flasks. The 857933-349-R-J2-PDC line was cultured in 6C/Colon 1B media containing advanced DMEM/F-12 (Thermo Fisher Scientific, cat. 12634028), 10 mM HEPES (Thermo Fisher Scientific, cat. 15630080), 1X GlutaMAX supplement (Thermo Fisher Scientific, cat. 35050061), 0.1 mg/mL primocin (InvivoGen, San Diego, CA, cat. ant-pm-2), 10% defined fetal bovine serum, heat inactivated (HyClone Laboratories Inc., Logan, UT, cat. SH30070.03HI), 50% L-WRN conditioned media (ATCC, cat. CRL-3276), 1.25 mM N-Acetyl-L-cysteine (Sigma-Aldrich, cat. A9165), 10 mM nicotinamide (Sigma-Aldrich, cat. N0636), 1X B-27 supplement (Thermo Fisher Scientific, cat. 17504044), 1X N-2 supplement (Thermo Fisher Scientific, cat. […]

[1] = second compound 0.0316 µM, first compound 0.0316 µM
[2] = second compound 0.0316 µM, first compound 0.1 µM
[3] = second compound 0.0316 µM, first compound 0.316 µM
[4] = second compound 0.0316 µM, first compound 1 µM
[5] = second compound 0.0316 µM, first compound 3.16 µM
[6] = second compound 0.0316 µM, first compound 10 µM
[7] = second compound 0.1 µM, first compound 0.0316 µM
[8] = second compound 0.1 µM, first compound 0.1 µM
[9] = second compound 0.1 µM, first compound 0.316 µM
[10] = second compound 0.1 µM, first compound 1 µM
[11] = second compound 0.1 µM, first compound 3.16 µM
[12] = second compound 0.1 µM, first compound 10 µM
[13] = second compound 0.316 µM, first compound 0.0316 µM
[14] = second compound 0.316 µM, first compound 0.1 µM
[15] = second compound 0.316 µM, first compound 0.316 µM
[16] = second compound 0.316 µM, first compound 1 µM
[17] = second compound 0.316 µM, first compound 3.16 µM
[18] = second compound 0.316 µM, first compound 10 µM
[19] = second compound 1 µM, first compound 0.0316 µM
[20] = second compound 1 µM, first compound 0.1 µM
[21] = second compound 1 µM, first compound 0.316 µM
[22] = second compound 1 µM, first compound 1 µM
[23] = second compound 1 µM, first compound 3.16 µM
[24] = second compound 1 µM, first compound 10 µM
[25] = second compound 3.16 µM, first compound 0.0316 µM
[26] = second compound 3.16 µM, first compound 0.1 µM
[27] = second compound 3.16 µM, first compound 0.316 µM
[28] = second compound 3.16 µM, first compound 1 µM
[29] = second compound 3.16 µM, first compound 3.16 µM
[30] = second compound 3.16 µM, first compound 10 µM
[31] = second compound 10 µM, first compound 0.0316 µM
[32] = second compound 10 µM, first compound 0.1 µM
[33] = second compound 10 µM, first compound 0.316 µM
[34] = second compound 10 µM, first compound 1 µM
[35] = second compound 10 µM, first compound 3.16 µM
[36] = second compound 10 µM, first compound 10 µM
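Also: spheroids exposed to compounds for seven days.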
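For viability, T/C in this document: 100% = DMSO vehicle control viability.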

## COc1cc2cc(C(=O)CCC(=O)O)sc2cc1OC + Cc1cccc(N(C)C(=O)C2C(O)CCN2c2nc(C)cc(C(F)(F)F)c2C#N)c1
Second compound 0.0316 µM
  IC50: > 10 µM
Second compound 0.1 µM
  IC50: > 10 µM
Second compound 0.316 µM
  IC50: > 10 µM
Second compound 1 µM
  IC50: > 10 µM
Second compound 3.16 µM
  IC50: > 10 µM
Second compound 10 µM
  IC50: > 10 µM
[1]
  viability, T/C: 97.6%
[2]
  viability, T/C: 87.7%
[3]
  viability, T/C: 95%
[4]
  viability, T/C: 82.1%
[5]
  viability, T/C: 111%
[6]
  viability, T/C: 91.6%
[7]
  viability, T/C: 88.8%
[8]
  viability, T/C: 89.1%
[9]
  viability, T/C: 90.5%
[10]
  viability, T/C: 99.7%
[11]
  viability, T/C: 105%
[12]
  viability, T/C: 99.2%
[13]
  viability, T/C: 101%
[14]
  viability, T/C: 91.7%
[15]
  viability, T/C: 96.6%
[16]
  viability, T/C: 98.1%
[17]
  viability, T/C: 93.5%
[18]
  viability, T/C: 103%
[19]
  viability, T/C: 93.2%
[20]
  viability, T/C: 93.5%
[21]
  viability, T/C: 102%
[22]
  viability, T/C: 109%
[23]
  viability, T/C: 101%
[24]
  viability, T/C: 113%
[25]
  viability, T/C: 106%
[26]
  viability, T/C: 112%
[27]
  viability, T/C: 92.4%
[28]
  viability, T/C: 99.4%
[29]
  viability, T/C: 118%
[30]
  viability, T/C: 91.7%
[31]
  viability, T/C: 107%
[32]
  viability, T/C: 109%
[33]
  viability, T/C: 112%
[34]
  viability, T/C: 101%
[35]
  viability, T/C: 93.9%
[36]
  viability, T/C: 84.4%

## COc1ccc([C@@H](O)c2cc(-c3ncnc4cc(N5CCOCC5)ccc34)c(F)cc2Cl)nn1 + Cc1cccc(N(C)C(=O)C2C(O)CCN2c2nc(C)cc(C(F)(F)F)c2C#N)c1
Second compound 0.0316 µM
  IC50: 5.9 µM
Second compound 0.1 µM
  IC50: 5.56 µM
Second compound 0.316 µM
  IC50: 6.69 µM
Second compound 1 µM
  IC50: 6.39 µM
Second compound 3.16 µM
  IC50: 5.81 µM
Second compound 10 µM
  IC50: 6.17 µM
[1]
  viability, T/C: 102%
[2]
  viability, T/C: 105%
[3]
  viability, T/C: 94.9%
[4]
  viability, T/C: 110%
[5]
  viability, T/C: 74.3%
[6]
  viability, T/C: 29.4%
[7]
  viability, T/C: 101%
[8]
  viability, T/C: 112%
[9]
  viability, T/C: 109%
[10]
  viability, T/C: 97.9%
[11]
  viability, T/C: 71.3%
[12]
  viability, T/C: 28.1%
[13]
  viability, T/C: 90.4%
[14]
  viability, T/C: 105%
[15]
  viability, T/C: 101%
[16]
  viability, T/C: 104%
[17]
  viability, T/C: 86.2%
[18]
  viability, T/C: 30.4%
[19]
  viability, T/C: 100%
[20]
  viability, T/C: 107%
[21]
  viability, T/C: 97%
[22]
  viability, T/C: 98.1%
[23]
  viability, T/C: 81%
[24]
  viability, T/C: 30%
[25]
  viability, T/C: 107%
[26]
  viability, T/C: 114%
[27]
  viability, T/C: 109%
[28]
  viability, T/C: 99.4%
[29]
  viability, T/C: 76.9%
[30]
  viability, T/C: 26.2%
[31]
  viability, T/C: 101%
[32]
  viability, T/C: 102%
[33]
  viability, T/C: 125%
[34]
  viability, T/C: 109%
[35]
  viability, T/C: 84.3%
[36]
  viability, T/C: 25.1%
